Data set [1] can be described thus: 7-day oral gavage study, metabolic parameters, body weight and food consumption in CR SD rats. The format is in vivo, rat. Particulars: for Cholesterol (plasma) / Glucose (plasma) / Insulin (plasma) / Triglycerides (plasma): n=5. As to the method:
Two groups (n=5) of CR SD rats (approximately 300 g) were treated with 2 dose levels of perfluorinated compounds (15 and 25 mg/kg/day body weight). Animals were administered test substances, dissolved in corn oil, by oral gavage, daily for 7 days. One group of 20 CR SD rays was also treated with vehicle (corn oil) alone. Body weight and food consumption were monitored daily.
Twenty-four hours after the last dose the animals were killed by an increasing concentration of carbon dioxide. Blood was collected by cardiac puncture and plasma was prepared and stored at −70° C. until analysed.
Plasma was analysed for triglycerides, cholesterol, and glucose, using kits purchased from Sigma. Concentrations of plasma insulin were determined using a commercially available enzyme-immunoassay-based kit from Amersham Biosciences. All assays were carried out as specified by the manufacturer.

Data set [2] has as its system three human tumour-derived cell lines (HT-29, MCF7, PC3). As to the kind of experiment: SRB growth inhibition, summary over the three human tumour cell lines. The format is cell-based. Particulars: Homo sapiens; over HT-29, MCF7 and PC3. The protocol: (§1) The effect of perfluorinated compounds on the inhibition of tumour cell growth was assessed iii vitro using three human tumour-derived cell lines. Cancer cell lines were tested using the sulphorhodamine B (SRB) assay (which measures cellular protein and is directly related to cell number), which is utilised by the […] to screen anti-cancer agents.
(§2) HT-29 cells (human colon tumour-derived), MCF7 cells (human breast cancer-derived) and PC3 cells (human prostate cancer-derived) were harvested and diluted (to 5×10^4 cells per ml, 1×10^5 cells per ml and 7.5×10^4 cells per ml respectively) in RPMI 1640 medium containing 5% FBS, 2 mM glutamine and. 50 μg/ml gentamicin. 100 μl of cell suspension per well was added to 96 well plates and allowed to attach overnight. Cells were exposed to test compounds dissolved in DMSO in 100 μl of medium to give final drug concentrations of 0, 0.3, 1, 3, 10, 30, 100, 300, 1000 and 3000 μM (and DMSO at 0.25%). (n=6 for each drug concentration). After 48 hours, cells were fixed in 10% trichloroacetic acid (TCA) at 4° C. for 1-2 hours then washed using water and subsequently air-dried. 100 μl SRB solution (0.4%) in 1% Acetic Acid was added to each well, and plates were incubated at room temperature for 10 minutes. Unbound dye was removed by washing with 1% acetic acid. Plates were air-dried and bound stain was solubilised in 10 mM Tris base and the absorbance read at 520 nm.

Data set [3] concerns the target T1, PPAR gamma (Homo sapiens, UniProt P37231).
T1 construct: 25 ng of vector DNA carrying PPAR alpha, delta or gamma; expressed in transfected cells; host or cells: COS-1 (African green monkey kidney cells)
T1 sequence (P37231 1-505): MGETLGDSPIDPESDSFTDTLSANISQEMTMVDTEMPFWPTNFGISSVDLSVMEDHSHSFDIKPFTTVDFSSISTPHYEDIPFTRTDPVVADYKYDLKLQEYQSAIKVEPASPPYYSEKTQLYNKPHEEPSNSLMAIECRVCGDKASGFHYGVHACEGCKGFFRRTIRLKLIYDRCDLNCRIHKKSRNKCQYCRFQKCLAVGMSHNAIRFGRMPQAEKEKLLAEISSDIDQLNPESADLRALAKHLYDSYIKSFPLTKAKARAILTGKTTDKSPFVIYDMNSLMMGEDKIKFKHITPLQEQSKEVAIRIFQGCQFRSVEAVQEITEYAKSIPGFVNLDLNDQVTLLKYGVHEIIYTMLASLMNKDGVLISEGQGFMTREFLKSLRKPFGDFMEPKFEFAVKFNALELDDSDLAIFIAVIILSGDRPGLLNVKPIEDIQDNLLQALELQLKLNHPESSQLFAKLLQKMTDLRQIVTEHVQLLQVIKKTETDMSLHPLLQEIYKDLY
As to the kind of experiment: PPAR gamma transactivation assay in COS-1 cells. The conditions noted are these: at 1 mM, mean±SD n=3. The format is cell-based.

Data set [4] has as its system MCF7 cells (human breast cancer-derived). As to the kind of experiment: SRB growth inhibition assay, MCF7 cells. The data set is classed as cell-based. The conditions noted are these: Homo sapiens, MCF7, 48 h, 48 hours exposure. As to the method:
as §1, §2

Data set [5] in a line: Plasma levels of PFOA after 11 days oral dosing in SD rats (LC/MS/MS). The format is in vivo, rat. The conditions noted are these: 25 mg/kg oral daily for 11 days, 24 hours after final administration. As to the method:
The study consisted of one control group of 8 male CD Sprague Dawley rats (8-10-weeks old; obtained from Harlan, UK) and 4 test groups that contained 4 rats. Animals received powdered RM1 diet ad libitum for the duration of the study. […] All chemicals were dissolved in Mazola corn oil (at 2.5 mg/ml) and test compounds were administered at 10 ml/kg bodyweight. Control animal received Mazola corn oil only. All animals were sacrificed after 11 days. Animals were killed by exposure to rising concentrations of CO2, and blood was harvested into lithium/heparin tubes for plasma.
Rat plasma samples were denatured by adding acetonitrile, and the amount of perfluorooctanoic acid (PFOA) present was determined by LC/MS/MS.

For data set [6], the system named is PC3 cells (human prostate cancer-derived). Briefly: SRB growth inhibition assay, PC3 cells. The data set is classed as cell-based. The conditions noted are these: Homo sapiens, PC-3, 48 hours exposure. As to the method: as §1, §2
Data set [7] concerns the target T2, PPAR delta (Homo sapiens, UniProt Q03181).
T2 construct: 25 ng of vector DNA carrying PPAR alpha, delta or gamma; expressed in transfected cells; host or cells: COS-1 (African green monkey kidney cells)
T2 sequence (Q03181 1-441): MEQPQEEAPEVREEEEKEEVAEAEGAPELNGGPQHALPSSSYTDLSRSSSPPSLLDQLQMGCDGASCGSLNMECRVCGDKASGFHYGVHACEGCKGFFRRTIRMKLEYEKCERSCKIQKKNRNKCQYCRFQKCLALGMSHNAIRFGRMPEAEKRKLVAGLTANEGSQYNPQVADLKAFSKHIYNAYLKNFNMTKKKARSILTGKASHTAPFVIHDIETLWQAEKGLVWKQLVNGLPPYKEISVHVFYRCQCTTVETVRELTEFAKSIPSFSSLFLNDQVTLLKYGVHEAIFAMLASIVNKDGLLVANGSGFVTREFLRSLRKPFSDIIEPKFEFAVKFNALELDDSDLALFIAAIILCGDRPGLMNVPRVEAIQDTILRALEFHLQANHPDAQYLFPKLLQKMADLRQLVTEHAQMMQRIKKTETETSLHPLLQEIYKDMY
Briefly: PPAR delta transactivation assay in COS-1 cells. Details: Fold activation of PPAR delta: dose or concentration left out as unconfirmed. The data set is classed as cell-based. Particulars: mean±SD n=3.

The subject of data set [8] is HT-29 cells (human colon tumour-derived). As to the kind of experiment: SRB growth inhibition assay, HT-29 cells. The data set is classed as cell-based. Particulars: Homo sapiens, HT-29, 48 h, 48 hours exposure. As to the method: as §1, §2
Data set [9] addresses T3, PPAR alpha (Rattus norvegicus, UniProt P37230).
T3 construct: 25 ng of vector DNA carrying PPAR alpha, delta or gamma; expressed in transfected cells; host or cells: COS-1 (African green monkey kidney cells)
T3 sequence (P37230 1-468): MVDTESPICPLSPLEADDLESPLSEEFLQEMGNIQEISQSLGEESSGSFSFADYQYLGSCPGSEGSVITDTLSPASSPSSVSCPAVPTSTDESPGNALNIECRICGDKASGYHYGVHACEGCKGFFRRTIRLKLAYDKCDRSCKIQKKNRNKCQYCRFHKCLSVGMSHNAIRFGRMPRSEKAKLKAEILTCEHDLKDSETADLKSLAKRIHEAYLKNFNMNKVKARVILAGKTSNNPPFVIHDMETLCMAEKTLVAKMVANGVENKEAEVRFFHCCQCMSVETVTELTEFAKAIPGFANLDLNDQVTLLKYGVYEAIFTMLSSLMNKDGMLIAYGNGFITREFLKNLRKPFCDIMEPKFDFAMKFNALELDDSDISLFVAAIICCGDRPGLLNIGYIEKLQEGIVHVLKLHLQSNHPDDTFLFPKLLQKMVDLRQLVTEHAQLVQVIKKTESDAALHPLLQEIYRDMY
Briefly: PPAR alpha transactivation assay in COS-1 cells. The format is cell-based. The conditions noted are these: at 10 μM, mean±SD n=3.

Data set [10] can be described thus: 21-day diet study, bodyweights of SD rats. The format is in vivo, rat. The conditions noted are these: 300 ppm in diet, 21 days. As to the method: This experiment investigated the effect of compounds of different % linearity on body weight over a longer study period.
The diet study consisted of one control group of 4 male animals and 4 test groups of 4 male animals (as specified earlier in this Example). Animals received powdered RM1 diet alone, or RM1 diet containing 300 ppm XEN1001 or XEN1002, ad libitum for the duration of the study. Bodyweights were measured daily for 21 days.

Setting [11] is: 15 mg/kg/day oral gavage 7 days.
Where [12] appears, read: 25 mg/kg/day oral gavage 7 days.

A value given as a limit tells only on which side of the number the result lay.

`COC(=O)C(F)(F)C(F)(F)C(F)(F)C(F)(F)C(F)(F)C(F)(F)C(F)(F)F` [MPOA, Methyl perfluorooctanoate]: in data set [1] (15 mg/kg), the “Plasma insulin, % of control values” was determined as 2.6%. The compound further came in with a Weight loss in data set [1] (15 mg/kg, 7 days) of 8.2%. In data set [1] (setting [11]), the “Cholesterol (plasma)” value came to 1.17 ± 0.31 mmol/L, the “Glucose (plasma)” value turned out to be 11.48 ± 1.27 mmol/L, the “Insulin (plasma)” value was found to be 4.87 ± 2.611 ng/mL and the “Triglycerides (plasma)” value amounted to 0.28 ± 0.08 mmol/L. For the same compound, in [1] (25 mg/kg), the “Plasma cholesterol, % of control values” worked out at 36.7%; the “Plasma insulin, % of control values” is listed as 15.6%; the “Plasma triglycerides, % of control values” was 33.7%. Further, the Bodyweight lost in data set [1] (25 mg/kg, after day 6, terminated early) is 8%. Also, in [1] (setting [12]), the “Cholesterol (plasma)” value was determined as 0.73 ± 0.23 mmol/L, the “Glucose (plasma)” value was 12.99 ± 2.07 mmol/L, the “Insulin (plasma)” value came out at 28.74 ± 17.22 ng/mL and the “Triglycerides (plasma)” value was 0.6 ± 0.89 mmol/L. The “Bodyweight change” value in [1] (15 and 25 mg/kg/day, continued till end of treatment) was “lost bodyweight after day 3”. For the same compound, in [1] (15 and 25 mg/kg/day, versus control), the Food consumption result is listed as “dose-related, decreases in food consumption”. In [1] (dose not stated), the “Plasma glucose, % of control values” was determined as 78.6%. This compound came in with an IC50 in data set [2] of roughly 3000 µM. Besides, in data set [3], the “Fold activation of PPAR gamma” value is 2.92 ± 0.12 fold. The same compound displayed an IC50 in data set [4] greater than 2790 µM. Further, in data set [5], the “Plasma concentration of PFOA (free acid)” value is reported as “equimolar concentrations of PFOA”. Moreover, in data set [6], the IC50 was greater than 3000 µM. In [7], the “Fold activation of PPAR delta” value was determined as 1.51 ± 0.31 fold. Besides, the 50% inhibitory concentration (IC50) in data set [8] is greater than 3000 µM.

On to `Cc1cccc(Nc2cc(Cl)nc(SCC(=O)O)n2)c1C` [Wyeth14643], for which the “Fold activation of PPAR alpha, positive control” value in [9] is listed as 8.88 ± 1.94 fold.

For the compound `N.O=C(O)C(F)(F)C(F)(F)C(F)(F)C(F)(F)C(F)(F)C(F)(F)C(F)(F)F` [XEN1001, Ammoniumperfluorooctanoate], the “Lost bodyweight up to day” value in [10] worked out at 7 days. Besides, the “Plasma concentration of PFOA (free acid)” value in [5] is “equimolar concentrations of PFOA”.

For `N.O=C(O)C(F)(F)C(F)(F)C(F)(F)C(F)(F)C(F)(F)C(F)(F)C(F)(F)F` [XEN1002, Ammoniumperfluorooctanoate], in data set [10], the “Lost bodyweight up to day” value turned out to be 10 days and the “Weight loss compared with XEN1001” value is “more pronounced”. The “Plasma concentration of PFOA (free acid)” value in data set [5] is “equimolar concentrations of PFOA”.

Source of the values: patent publication US20060052451A1, “Method” (priority 2002, published 2006).
